In patent US7632413B2, “Process for treating a liquid medium using ultrasound” (Ashland Licensing and Intellectual Property LLC, priority 2002, dated 2009):

System: K562 cells
Test: Annexin-V/PI assay of ultrasonically induced apoptosis in the presence of active oxygen scavengers
Assay type: cell-based, Human
Conditions: L-histidine 10 mM and/or mannitol 100 mM; for percentage of cells displaying phosphatidylserine externalization: 5 hours post-treatment, mean ± SEM, 4 experiments
Procedure: Human leukemia cell lines (K562, Nalm-6, KG1a, and HL-60) obtained from the American Type Culture Collection (ATCC, Rockville, Md., USA) were grown in RPMI-1640 (BioWhittaker, Walkersville, Md., USA) supplemented with 10% fetal calf serum (Gibco, Grand Island, N.Y., USA) and 1% L-glutamine (Gibco). Leukemic cells were harvested, resuspended in phosphate-buffered saline (PBS, pH=7.2, Gibco), and immediately used for the experiment. Heparinized venous blood was obtained from healthy volunteers and leukemic patients. Mononuclear cells were separated by Ficoll-Hypaque gradient density centrifugation (International Medical Products, Brussels, Belgium). The following describes the ultrasonic treatment on the cells. Human leukemia cell lines (K562, HL-60, KG1a, and Nalm-6), primary leukemic cells, and normal mononuclear cells were treated by ultrasound at a frequency of 1.8 MHz during various exposure times at an acoustical power of 7 mW/mL and irradiation (ON/OFF) cycles of 5.5 ms/3 ms. During apoptosis, phosphatidylserine residues flip from the inside to the outside of the plasma membrane and this change can be detected using Annexin-FITC, which binds to the PS residues. The following describes an Annexin V binding assay that was performed. Flow cytometric analysis of Annexin-V-fluorescein isothiocyanate (FITC)-and propidium iodide (PI)-stained cells was performed using the kit purchased from Biosource International (Camarillo, Calif., USA) as recommended by the manufacturer. Data were presented as dot plots showing the change in mean fluorescence intensity of Annexin-V-FITC/propidium iodide (not shown). The following procedure was performed to determine the effect of active oxygen scavengers on the induction of apoptosis by high-frequency ultrasound. K562 cells were incubated with L-histidine (10 mM) and/or mannitol (100 mM). Some cells were treated by high-frequency ultrasound and others were not. Cell apoptosis was detected by an Annexin-V/PI assay.

Row | Compound | percentage of cells displaying phosphatidylserine externalization (1 US treatment) | percentage of cells displaying phosphatidylserine externalization (3 US treatments) | inhibition at 100000 µM (Homo sapiens, K562, apoptosis induced by 3 successive ultrasound treatments) | percentage of cells displaying phosphatidylserine externalization (No US treatment) | inhibition of apoptosis (apoptosis induced by 3 successive ultrasound treatments)
1 | OC[C@@H](O)[C@@H](O)[C@H](O)[C@H](O)CO [Mannitol, mannitol] | 21 ± 5% | 30 ± 3% | 47% | 11 ± 4% | 
2 | N[C@@H](Cc1c[nH]cn1)C(=O)O [Histidine, L-histidine] | 24 ± 8% | 36 ± 11% |  | 15 ± 5% | 43%
